Like-named read-outs stand apart in the source and are kept apart here.
What was measured:
[1] = test system: Plasmodium falciparum Dd2 asexual blood stage parasites; test: microbe, parasite or virus in culture; design: species or system Plasmodium falciparum Dd2 in human erythrocytes; single determination (one 11-point concentration-response curve); settings: Plasmodium falciparum, DD2, Erythrocyte, 72 h; read-out: AC50
[2] = test system: P. berghei-ANKA-GFP-LucCON liver stage parasites in HepG2-A16-CD81EGFP cells; test: P. berghei liver stage Pb-Luc assay, Method 1 (UCSD, 1536-well); assay type: cell-based, Plasmodium berghei; settings: Plasmodium berghei, 48 h, P. berghei liver stage, average of 2 wells on a 1536 well plate; for activity at 1 µM: 1 µM compound treatment (10 mM stocks); for activity at 3 µM: 3 µM compound treatment (10 mM stocks)
HepG2-A16-CD81EGFP cells = settings: average of 2 wells; for HepG2 1uM growth rep1 / HepG2 1uM growth rep2: HepG2, 1 µM compound treatment (10 mM stocks); for HepG2 1uM growth rep1 / HepG2 3uM growth rep1: replicate 1, normalized; for HepG2 1uM growth rep2 / HepG2 3uM growth rep2: replicate 2, normalized; for HepG2 3uM growth rep1 / HepG2 3uM growth rep2: HepG2, 3 µM compound treatment (10 mM stocks)
[3] = replicate 1, normalized, read-out: PbLuc 1uM growth rep1
[4] = replicate 2, normalized, read-out: PbLuc 1uM growth rep2
[5] = replicate 1, normalized, read-out: PbLuc 3uM growth rep1
[6] = replicate 2, normalized, read-out: PbLuc 3uM growth rep2

For CCCCN(C(=O)c1cccc(S(=O)(=O)N(C)c2ccc(C)cc2)c1)c1c(N)n(CCCC)c(=O)[nH]c1=O [MLS001128188-01], the AC50 [1] was 5310 nM, the activity at 1 µM [2, 3] was 100% and the activity at 1 µM [2, 4] was 88%. For the same compound, the activity at 3 µM [2, 5] was 85%, the activity at 3 µM [2, 6] was 111% and the “HepG2 1uM growth rep1” value (HepG2-A16-CD81EGFP cells) was 96%. The “HepG2 1uM growth rep2” value (HepG2-A16-CD81EGFP cells) was 92%, the “HepG2 3uM growth rep1” value (HepG2-A16-CD81EGFP cells) was 90% and the “HepG2 3uM growth rep2” value (HepG2-A16-CD81EGFP cells) was 93%.
For Cc1ccc(-c2c(C(=O)N/N=C/c3cccc(Cl)c3)nnn2-c2nonc2N)cc1 [MLS001139410-01], the AC50 [1] was 237 nM, the activity at 1 µM [2, 3] was 143% and the activity at 1 µM [2, 4] was 123%. The activity at 3 µM [2, 5] was 105%, the activity at 3 µM [2, 6] was 91% and the “HepG2 1uM growth rep1” value (HepG2-A16-CD81EGFP cells) was 90%. For the same compound, the “HepG2 1uM growth rep2” value (HepG2-A16-CD81EGFP cells) was 91%, the “HepG2 3uM growth rep1” value (HepG2-A16-CD81EGFP cells) was 90% and the “HepG2 3uM growth rep2” value (HepG2-A16-CD81EGFP cells) was 94%.
Nc1nonc1-n1nnc(C(=O)N/N=C/c2ccc(Br)cc2)c1-c1ccc2c(c1)OCO2 [MLS001142619-01] was tested, and the AC50 [1] was 422 nM, the activity at 1 µM [2, 3] was 115% and the activity at 1 µM [2, 4] was 112%. For the same compound, the activity at 3 µM [2, 5] was 108%, the activity at 3 µM [2, 6] was 122% and the “HepG2 1uM growth rep1” value (HepG2-A16-CD81EGFP cells) was 91%. The “HepG2 1uM growth rep2” value (HepG2-A16-CD81EGFP cells) was 88%, the “HepG2 3uM growth rep1” value (HepG2-A16-CD81EGFP cells) was 86% and the “HepG2 3uM growth rep2” value (HepG2-A16-CD81EGFP cells) was 93%.
With COc1ccc(NC(=O)C(c2ccc(Cl)cc2)C(C)C)cn1 (stereo not drawn) [MLS001149289-01] the AC50 [1] was 1880 nM, the activity at 1 µM [2, 3] was 131% and the activity at 1 µM [2, 4] was 130%. The activity at 3 µM [2, 5] was 155%, the activity at 3 µM [2, 6] was 159% and the “HepG2 1uM growth rep1” value (HepG2-A16-CD81EGFP cells) was 104%. The “HepG2 1uM growth rep2” value (HepG2-A16-CD81EGFP cells) was 98%, the “HepG2 3uM growth rep1” value (HepG2-A16-CD81EGFP cells) was 90% and the “HepG2 3uM growth rep2” value (HepG2-A16-CD81EGFP cells) was 87%.
Work on Cc1ccnc(NC(=O)c2cccc(S(=O)(=O)N3CCCc4ccccc43)c2)c1 [MLS001159724-01] yielded an AC50 [1] of 2370 nM, an activity at 1 µM [2, 3] of 100% and an activity at 1 µM [2, 4] of 97%. The activity at 3 µM [2, 5] was 38%, the activity at 3 µM [2, 6] was 52% and the “HepG2 1uM growth rep1” value (HepG2-A16-CD81EGFP cells) was 101%. For the same compound, the “HepG2 1uM growth rep2” value (HepG2-A16-CD81EGFP cells) was 95%, the “HepG2 3uM growth rep1” value (HepG2-A16-CD81EGFP cells) was 90% and the “HepG2 3uM growth rep2” value (HepG2-A16-CD81EGFP cells) was 89%.
For CCOC(=O)C1CCN(Cc2cc(Cl)c3ccccc3c2O)CC1 [MLS001171913-01], the AC50 [1] was 1880 nM, the activity at 1 µM [2, 3] was 100% and the activity at 1 µM [2, 4] was 93%. The activity at 3 µM [2, 5] was 91%, the activity at 3 µM [2, 6] was 110% and the “HepG2 1uM growth rep1” value (HepG2-A16-CD81EGFP cells) was 88%. For the same compound, the “HepG2 1uM growth rep2” value (HepG2-A16-CD81EGFP cells) was 93%, the “HepG2 3uM growth rep1” value (HepG2-A16-CD81EGFP cells) was 88% and the “HepG2 3uM growth rep2” value (HepG2-A16-CD81EGFP cells) was 86%.
In the case of CC(NCc1ccccc1O)C12CC3CC(CC(C3)C1)C2 (stereo not drawn) [MLS001173343-01], the AC50 [1] is reported as 94.4 nM, the activity at 1 µM [2, 3] is reported as 106% and the activity at 1 µM [2, 4] is reported as 90%. The activity at 3 µM [2, 5] was 70%, the activity at 3 µM [2, 6] was 88% and the “HepG2 1uM growth rep1” value (HepG2-A16-CD81EGFP cells) was 109%. The “HepG2 1uM growth rep2” value (HepG2-A16-CD81EGFP cells) was 103%, the “HepG2 3uM growth rep1” value (HepG2-A16-CD81EGFP cells) was 93% and the “HepG2 3uM growth rep2” value (HepG2-A16-CD81EGFP cells) was 102%.
Compound COc1cc(C)cc(CN2CCC(Cc3ccccc3)CC2)c1O [MLS001178265-01] has an AC50 [1] of 750 nM, an activity at 1 µM [2, 3] of 83% and an activity at 1 µM [2, 4] of 95%. For the same compound, the activity at 3 µM [2, 5] was 81%, the activity at 3 µM [2, 6] was 123% and the “HepG2 1uM growth rep1” value (HepG2-A16-CD81EGFP cells) was 101%. The “HepG2 1uM growth rep2” value (HepG2-A16-CD81EGFP cells) was 92%, the “HepG2 3uM growth rep1” value (HepG2-A16-CD81EGFP cells) was 87% and the “HepG2 3uM growth rep2” value (HepG2-A16-CD81EGFP cells) was 88%.
Compound CCOC(=O)c1c(CN2CCN(c3ccccc3)CC2)oc2cc(Br)c(O)cc12 [MLS001198242-01] has an AC50 [1] of 1880 nM, an activity at 1 µM [2, 3] of 136% and an activity at 1 µM [2, 4] of 107%. For the same compound, the activity at 3 µM [2, 5] was 96%, the activity at 3 µM [2, 6] was 86% and the “HepG2 1uM growth rep1” value (HepG2-A16-CD81EGFP cells) was 109%. The “HepG2 1uM growth rep2” value (HepG2-A16-CD81EGFP cells) was 100%, the “HepG2 3uM growth rep1” value (HepG2-A16-CD81EGFP cells) was 87% and the “HepG2 3uM growth rep2” value (HepG2-A16-CD81EGFP cells) was 95%.
COc1cccc(-c2c(C#N)c(N)nc3c2c(C)nn3-c2ccccc2)c1O [MLS001214341-01] showed an AC50 [1] of 1500 nM, an activity at 1 µM [2, 3] of 118% and an activity at 1 µM [2, 4] of 95%. For the same compound, the activity at 3 µM [2, 5] was 106%, the activity at 3 µM [2, 6] was 118% and the “HepG2 1uM growth rep1” value (HepG2-A16-CD81EGFP cells) was 104%. The “HepG2 1uM growth rep2” value (HepG2-A16-CD81EGFP cells) was 95%, the “HepG2 3uM growth rep1” value (HepG2-A16-CD81EGFP cells) was 90% and the “HepG2 3uM growth rep2” value (HepG2-A16-CD81EGFP cells) was 91%.
Compound COc1ccc(C2c3[nH]c4ccccc4c3C[C@H]3C(=O)N(C4CCN(Cc5ccccc5)CC4)CC(=O)N23)cc1OC (stereo partly drawn) [MLS001215281-01] has an AC50 [1] of 2990 nM, an activity at 1 µM [2, 3] of 95% and an activity at 1 µM [2, 4] of 94%. The activity at 3 µM [2, 5] was 66%, the activity at 3 µM [2, 6] was 79% and the “HepG2 1uM growth rep1” value (HepG2-A16-CD81EGFP cells) was 107%. The “HepG2 1uM growth rep2” value (HepG2-A16-CD81EGFP cells) was 95%, the “HepG2 3uM growth rep1” value (HepG2-A16-CD81EGFP cells) was 91% and the “HepG2 3uM growth rep2” value (HepG2-A16-CD81EGFP cells) was 90%.
Work on O=C(c1ccc([N+](=O)[O-])o1)N1CCN(c2nc3c(Cl)cccc3s2)CC1 [MLS001234208-01] yielded an AC50 [1] of 4220 nM, an activity at 1 µM [2, 3] of 67% and an activity at 1 µM [2, 4] of 72%. The activity at 3 µM [2, 5] was 36%, the activity at 3 µM [2, 6] was 52% and the “HepG2 1uM growth rep1” value (HepG2-A16-CD81EGFP cells) was 103%. For the same compound, the “HepG2 1uM growth rep2” value (HepG2-A16-CD81EGFP cells) was 93%, the “HepG2 3uM growth rep1” value (HepG2-A16-CD81EGFP cells) was 86% and the “HepG2 3uM growth rep2” value (HepG2-A16-CD81EGFP cells) was 94%.

From article PMC7822874, “Chemoprotective antimalarials identified through quantitative high-throughput screening of Plasmodium blood and liver stage parasites” (Scientific Reports, 2021)
